We go through eight molecules from US20240270821A1, “GIP/GLP1/GCG TRI-RECEPTOR AGONISTS AND USES THEREOF” (priority 2023, published 2024).

As usually defined, the EC50 is the concentration giving half of the maximal effect.

In assay [1] the target is hGcgR (Homo sapiens, UniProt P47871). In words: Functional cAMP activation in the presence of 0.1% casein (no HSA). The assay is classed as cell-based. The following applies: in the presence of 0.1% casein (no HSA); geometric mean; read-out: Relative cAMP EC50, hGcgR.
Assay [2] deals with T1, hGLP-1R (Homo sapiens, UniProt P43220). In words: Functional cAMP activity in the presence of 1% HSA. The format is cell-based. The note with it: read-out: cAMP Rel EC50, hGLP-1R.
The target of assay [3] is human GLP1-R (Homo sapiens, UniProt P43220). In words: GLP1-R internalization assay in HEK293 cells. The assay is classed as cell-based. The following applies: for EC50: HEK293 cells expressing SNAP-GLP-1R, read-out: GLP1R Internalization EC50; for Internalization % TOP: normalized to maximum concentration of GLP-1 (100%).
Assay [4] deals with T2, hGIPR (Homo sapiens, UniProt P48546).
T2 sequence (P48546 22-466): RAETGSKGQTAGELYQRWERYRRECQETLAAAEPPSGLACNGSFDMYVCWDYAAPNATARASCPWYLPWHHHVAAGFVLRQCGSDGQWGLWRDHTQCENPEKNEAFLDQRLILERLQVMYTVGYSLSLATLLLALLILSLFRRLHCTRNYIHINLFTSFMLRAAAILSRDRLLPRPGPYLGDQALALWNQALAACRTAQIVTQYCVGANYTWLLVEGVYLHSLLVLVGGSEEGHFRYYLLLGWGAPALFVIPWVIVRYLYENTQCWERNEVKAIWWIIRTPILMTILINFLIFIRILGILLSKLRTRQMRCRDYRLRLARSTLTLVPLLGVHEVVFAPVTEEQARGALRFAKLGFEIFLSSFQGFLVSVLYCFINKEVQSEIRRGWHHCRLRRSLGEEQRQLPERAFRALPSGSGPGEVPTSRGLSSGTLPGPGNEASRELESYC
In words: Functional cAMP activation in the presence of 0.1% casein (no HSA). The assay is classed as cell-based. The note with it: in the presence of 0.1% casein (no HSA); geometric mean; read-out: Relative cAMP EC50, hGIPR.

Assay [5] deals with human GcgR (Homo sapiens, UniProt P47871). In words: Functional cAMP activity in the presence of 1% HSA. The assay is classed as cell-based. The note with it: read-out: cAMP Rel EC50, hGcgR.
The target of assay [6] is T2, hGIPR. In words: Functional cAMP activity in the presence of 1% HSA. The assay is classed as cell-based. The note with it: read-out: cAMP Rel EC50, hGIPR.
For assay [7], the target named is T1, hGLP-1R. Nature of the assay: Functional cAMP activation in the presence of 0.1% casein (no HSA). The note with it: in the presence of 0.1% casein (no HSA); geometric mean; read-out: Relative cAMP EC50, hGLP-1R. The format is cell-based.
The target of assay [8] is human GLP-1R (SNAP-GLP-1R expressed in HEK293 cells) (human) (UniProt P43220). In words: cell-based or functional assay.
Assay [9] has as its target human glucagon receptor (human) (UniProt P47871). In words: cell-based or functional assay.
Assay [10] addresses T3, human GIP receptor (human) (UniProt P48546).
T3 sequence (looked up): T2 sequence (P48546 22-466)
Nature of the assay: cell-based or functional assay.

The target in assay [11] is T1, hGLP-1R. In words: cell-based or functional assay.

Starred links: 1 amine or outer side, 2 acyl side, 3 side chain; linkers in the order of their positions; H or OH if unused. Non-standard residues stand in square brackets, D forms with d. Groups on a side chain read outwards from the residue. No end group written: not given here. *: point of attachment. C20 diacid = O=C(O)CCCCCCCCCCCCCCCCCCC(=O)*; C18 diacid = O=C(O)CCCCCCCCCCCCCCCCC(=O)*; γGlu = O=C(O)[C@H](CCC(=O)[*:2])N[*:1]; 4Pal = N[C@@H](Cc1ccncc1)C(=O)O; αMeL = CC(C)C[C@](C)(N)C(=O)O; Orn = NCCC[C@H](N)C(=O)O; AEEA = NCCOCCOCC(=O)O; Aib = CC(C)(N)C(=O)O
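Wherever Relative cAMP EC50, hGIPR is given: intracellular cAMP rise after 30 min at 37 °C read by HTRF against a standard curve, scaled between buffer alone (0%) and top control ligand concentration (100%), four-parameter fit.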
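Wherever Relative cAMP EC50, hGLP-1R is given: intracellular cAMP rise after 30 min at 37 °C read by HTRF, normalized between buffer only (0%) and maximal control ligand (100%), four-parameter variable-slope fit.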
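Wherever Relative cAMP EC50, hGcgR is given: intracellular cAMP rise after 30 min at 37 °C, read by HTRF against a cAMP standard curve, scaled from buffer only (0%) to maximal control ligand response (100%).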

T1 sequence (P43220 24-463): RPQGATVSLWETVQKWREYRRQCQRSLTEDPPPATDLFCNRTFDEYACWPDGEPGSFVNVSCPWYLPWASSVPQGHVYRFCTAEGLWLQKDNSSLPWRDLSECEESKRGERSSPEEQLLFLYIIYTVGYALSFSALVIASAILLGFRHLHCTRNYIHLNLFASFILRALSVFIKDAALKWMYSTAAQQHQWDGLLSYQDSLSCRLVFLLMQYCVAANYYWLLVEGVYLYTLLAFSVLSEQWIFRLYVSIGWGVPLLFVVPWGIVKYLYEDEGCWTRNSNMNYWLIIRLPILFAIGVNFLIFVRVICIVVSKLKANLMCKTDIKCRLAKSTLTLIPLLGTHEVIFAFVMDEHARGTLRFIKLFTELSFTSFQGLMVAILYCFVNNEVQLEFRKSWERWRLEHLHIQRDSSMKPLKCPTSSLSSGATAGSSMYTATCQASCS
human GLP-1R (SNAP-GLP-1R expressed in HEK293 cells) (human), sequence (P43220 24-463): as above
human GLP1-R, sequence (P43220 24-463): as above
human GcgR, sequence (P47871 26-477): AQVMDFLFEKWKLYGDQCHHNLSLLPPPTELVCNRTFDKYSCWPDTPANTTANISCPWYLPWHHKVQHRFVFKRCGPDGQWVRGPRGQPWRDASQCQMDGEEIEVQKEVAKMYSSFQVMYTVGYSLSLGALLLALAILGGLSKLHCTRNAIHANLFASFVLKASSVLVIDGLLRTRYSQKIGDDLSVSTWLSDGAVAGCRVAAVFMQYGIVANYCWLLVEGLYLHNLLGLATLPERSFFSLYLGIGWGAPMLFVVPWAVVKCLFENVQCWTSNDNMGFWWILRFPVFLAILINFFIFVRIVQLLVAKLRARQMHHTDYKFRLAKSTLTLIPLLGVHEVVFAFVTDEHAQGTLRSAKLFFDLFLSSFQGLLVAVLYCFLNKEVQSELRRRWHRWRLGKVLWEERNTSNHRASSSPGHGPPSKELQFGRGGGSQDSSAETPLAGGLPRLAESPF
human glucagon receptor (human), sequence (P47871 26-477): as above
hGcgR, sequence (P47871 26-477): as above

For “H-Y[Aib]QGTFTSD[4Pal]SR[αMeL]LDKK([AEEA-γGlu-C18 diacid])AQ[Aib]AFIEYLLAGGPSSGAPPPSGE-NH2 [Example 113]”, the concentration for a half-maximal effect (EC50) worked out at 12 nM in assay [1]; 467 nM in [2]; 39.5 nM in [3]; 0.24 nM in assay [4]; 2090 nM in [5]; 32.3 nM in assay [6]. For the same molecule, the EC50 in [7] was 3.93 nM. Moreover, the “Internalization % TOP” value in assay [3] was determined as 64.6%.

In the case of “H-Y[Aib]QGTFTSDFS[Orn][αMeL]LDKK([AEEA-AEEA-γGlu-C18 diacid])AQ[Aib]AFIEYLLE[dA]GPSSGHPPPSGS-NH2 [Example 253]”, the EC50 came to 6.62 nM in assay [1]; 355 nM in assay [2]; 81.6 nM in [3]; 0.115 nM in [4]; 963 nM in assay [5]; 26.6 nM in assay [6]. Moreover, the EC50 in assay [7] turned out to be 2.2 nM. In addition, the “Internalization % TOP” value in assay [3] is 55.2%.

In the case of “H-Y[Aib]QGTFTSDFS[Orn][αMeL]LDKK([AEEA-γGlu-C18 diacid])AQ[Aib]AFIEWLLEGGHSSGAPPPSGT-NH2 [Example 171]”, the EC50 in [1] came out at 3.86 nM; in [2] it was 287 nM; in assay [3] it was 61.4 nM; in assay [4], 0.2 nM; in assay [5], 502 nM; in assay [6], 27.1 nM. Also, the EC50 in assay [7] was determined as 2.89 nM. Also, the “Internalization % TOP” value in assay [3] was determined as 36.1%.

For the molecule “H-Y[Aib]QGTFTSDFS[Orn][αMeL]LDKK([AEEA-γGlu-γGlu-C18 diacid])AQ[Aib]AFIEYLLE[Aib]GPSSGAPPPSG[4Pal]-NH2 [Example 279]”, the EC50 in assay [1] came to 5.06 nM; in assay [2], 367 nM; in assay [3], 115 nM; in assay [4], 0.105 nM; in assay [5], 427 nM; in assay [6] it was 11.6 nM. In assay [7], the EC50 was 5.77 nM. The “Internalization % TOP” value in assay [3] amounted to 37.5%.

B1: Example 694 (peptide)
chain: YXQGTXTSDXXIXLDXKAQXEFIEXLVEGGPSSGAPPPSGS
modifications: synthetic construct; SITE 2: note = 2-Aminoisobutyric Acid; SITE 6: note = alpha-methyl-2-fluoro-L-phenylalanine; SITE 10: note = 3-(4-Pyridyl)-L-alanine; SITE 11: note = alpha-methyl-L-serine; SITE 13: note = alpha-methyl-leucine; SITE 16: note = L-ornithine; SITE 17: note = Lysine is chemically mo
In [8], B1 displayed a GLP1R Internalization EC50 of 21.8 nM and an Internalization % TOP of 97.3%.

As to Y[Aib]QGTFTSDYSI[αMeL]LDKQAAK([AEEA-AEEA-γGlu-C20 diacid])QFVEWLIA[Aib]GPSSGEPPPAEG-NH2 [Example 334], the Relative cAMP EC50 in [9] was found to be 6.77 nM; in assay [10], 0.223 nM; in assay [11] it was 0.707 nM. Besides, the cAMP Rel EC50 (1% HSA) in [9] turned out to be 2070 nM; in assay [10], 72.1 nM; in assay [11], 171 nM. Also, the GLP1R Internalization EC50 in [8] turned out to be 28.3 nM. Besides, the Internalization % TOP in assay [8] was 96.8%.

B2: Example 510 (peptide)
chain: YXQGTXTSDXSILLDKKAQXAFIEYLEEGGPSSGAPPPSGTGE
modifications: synthetic construct; SITE 2: note = 2-Aminoisobutyric Acid; SITE 6: note = alpha-methyl-2-fluoro-L-phenylalanine; SITE 10: note = 3-(4-Pyridyl)-L-alanine; SITE 17: note = Lysine is chemically modified through conjugation of the epsilon-amino group of the Lysine side chain with (gamma-Glu)2-CO-(CH2)1
In [8], B2 showed a GLP1R Internalization EC50 of 11.8 nM and an Internalization % TOP of 113%.

B3: Example 358 (peptide)
chain: YXQGTFTSDYSKXLDKKAQXAFIEYLLEGGESSGAPPPSGS
modifications: synthetic construct; SITE 2: note = 2-Aminoisobutyric Acid; SITE 13: note = alpha-methyl-leucine; SITE 17: note = Lysine is chemically modified through conjugation of the epsilon-amino group of the Lysine side chain with (2-[2-(2-Amino-ethoxy)-ethoxy]-acetyl)-(gamma-Glu)-CO-(CH2) 16-CO2H; SITE 20: n
For the molecule B3, in assay [9], the Relative cAMP EC50 was 2.78 nM and the cAMP Rel EC50, nM (1% HSA) was found to be 876 nM. In addition, in assay [8], the GLP1R Internalization EC50 is 21.5 nM and the Internalization % TOP came to 83.1%. Further, in assay [10], the Relative cAMP EC50 amounted to 0.182 nM and the cAMP Rel EC50, nM (1% HSA) was determined as 38.8 nM. In [11], this molecule gave a Relative cAMP EC50 of 2.31 nM and a cAMP Rel EC50, nM (1% HSA) of 492 nM.
